Patent US20230141988A1, “PHARMACEUTICAL COMPOSITION FOR USE IN THE TREATMENT OF NEUROLOGICAL DISEASES” (Aclipse One Inc., priority 2020, published 2023)
Values joined by “and” are separate entries in the source; they are usually repeats but may differ in a detail not shown here. Equal values may be shown once. Read-outs that look alike come from different tables or passages of the source.

Experiments:
[1] = Oxidation in liquid solutions; format: physicochemical; conditions: in the liquid solutions
in vivo [2] = experiment: in vivo
Procedure: Three non-naïve male beagle dogs supplied by Marshall Bioresources (Beijing, China) were used in this study. The animals were confirmed healthy before being assigned to the study. Each animal was given a unique identification number which was marked on ear and written on the cage card. The room(s) were controlled and monitored for relative humidity (targeted mean range 40% to 70%, and any excursion from this range for more than 3 hours will be documented as a deviation) and temperature (targeted mean range 18° C. to 26° C., and any excursion from this range will be documented as a deviation) with 10 to 20 air changes/hour. The rooms were on a 12-hour light/dark cycle except when interruptions are necessitated by study activities.
Animals were fed twice daily. Stock Dogs were fed approximately 220 grams of Certified Dog Diet daily (Beijing Keao Xieli Feed Co., Ltd. Beijing, P. R. China). These amounts could be adjusted as necessary based on food consumption of the group or an individual body weight change. For PO groups, animals were fed at 3:30 to 4:00 pm on the day prior to oral dosing and any remaining food was removed at 7:00 pm. Food was withheld until 4-hour post-dose. Animals were fed once on the day of dosing, with the amount of approximately 220 grams.
Three male non-naïve beagle dogs were assigned to this study. […] The detailed dosing and sampling regimens are described in the following two tables:
PO formulation preparations were processed in study facility on the day of dosing according to instructions provided by the sponsor. The concentrations of compounds in all dosing solutions were determined by HPLC/UV. Two aliquots were taken from each clear and three aliquots were taken from suspension formulations. All formulation samples were stored at 2-8° C. until analyzed by HPLC/UV. All dose formulation samples were analyzed in duplicate using HPLC/UV.
In plasma, approximately 0.5 mL blood was collected at each time point. All blood samples were collected from a peripheral vessel. All blood samples were transferred into commercially available tubes containing Potassium (K2) EDTA on wet ice and processed for plasma. Samples were centrifuged (3,000×g for 10 minutes at 2 to 8° C.) within 30 minutes of collection. After centrifugation, the stabilizing agent was added to the harvested plasma within 60 minutes. The samples were kept on ice and protected from sunlight (under yellow light). The stabilizing agent was ascorbic acid 200 mg/mL added in a proportion of 10% in plasma. The plasma samples were divided into two equal samples with each at least 0.2 ml (0.2*2 mL/sample) and transferred into labeled polypropylene micro-centrifuge tubes and stored frozen in a freezer set to maintain […] or lower until analyzed.
In CSF, about 0.1 mL/time point (50 μL*2 aliquots) of CSF were collected via the catheter implanted in the Cisterna Magna of conscious beagle dogs without any sedation. The procedures for CSF collection and handling were as follows: a polypropylene tube was weighed to accuracy of 0.1 mg (weight #1). CSF was collected and weighed the sample tube again (weight #2). Total CSF weight=weight #2−weight #1. The samples were kept on ice and protected from sunlight (under yellow light). Stabilizing agent was added within 60 minutes. The stabilizing agent was ascorbic acid 200 mg/mL added in a proportion of 10% in CSF. CSF samples were frozen on dry ice and stored at −60° C. or lower until bio-analysis.
For brain samples, different regions of brain were collected. Dogs were anesthetized and euthanasia according to SOP and collected the brain. The striatum, cortex and cerebellum were token rapidly and homogenized immediately (within 30 min) after being harvested. All the samples were stored at −60° C. or lower freezer finally.
For tissue homogenization, the homogenization solution was methanol:10 mM PBS=1:2 and set on dry ice. An empty conical tube was weighed, recorded, and set on dry ice.

[3] = Pharmacokinetic study, single IV, subcutaneous, PO and IN dose, male SD rats (plasma); conditions: rat, in vivo
Procedure: (§1) The vehicle for the IV, subcutaneous, PO and IN formulation contained “0.1% sodium metabisulfite solution”.
(§2) Male SD rats were purchased from Si Bei Fu Laboratory Animal Technology Co. Ltd (Beijing, China). The animals were about 8 weeks old with body weights of 200-300 g on the dosing date. The animals were housed in a 12-hour light/12-hour dark cycle environment and had free access to food and water. All animals were fasted overnight and fed after 4 hours collection.
(§3) Plasma samples were collected from jugular vein at each time point after IV, subcutaneous, PO and IN administrations.
(§4) About 200 μL of blood samples were collected from each animal via jugular vein. These blood samples were placed into the tubes containing K2EDTA. And centrifugation at 3000 g for 10 minutes in a 4° C. centrifuge. The completion time from collection was less than 30 min. The stabilizing agent of ascorbic acid at 200 mg/mL was added in a proportion of 10% in plasma. The plasma samples were stored in a freezer at −75±15° C. prior to analysis. The completion time from collection was less than 60 min.
(§5) Calibration standard working solutions were prepared at concentrations of 2, 5, 10, 20, 50, 100, 500, 1000, 5000 and 10000 ng/mL by serial dilution of the standard stock solution in 50% acetonitrile in water. Quality control working solutions at concentrations of 5, 10, 20, 500 and 8000 ng/mL were prepared by serial dilution of the standard stock solution in 50% acetonitrile in water. These QC samples were prepared on the day of analysis in the same way as calibration standards.
(§6) For plasma samples, 2 μL of each calibration standard working solution (2, 5, 10, 20, 50, 100, 500, 1000, 5000 and 10000 ng/mL) was added to 20 μL of the blank SD rat plasma (with 10% 200 mg/mL ascorbic acid) to achieve calibration standards of 0.2-1000 ng/mL (0.2, 0.5, 1, 2, 5, 10, 50, 100, 500, 1000 ng/mL) in a total volume of 22 μL. Quality Control (QC) samples at 0.5 ng/mL (low-1), 1 ng/mL (low-2) and 2 ng/mL (low-3), 50 ng/mL (mid), 800 ng/mL (high) for plasma were prepared independently for those used for the calibration curves. These QC samples were prepared on the day of analysis in the same way as calibration standards. The total volumes of 22 μL of standards, 22 μL of QC samples and 22 μL of unknown samples (20 μL of unknown plasma (with 10% 200 mg/mL ascorbic acid) with 2 μL 50% acetonitrile) were added to 200 μL of acetonitrile containing IS to precipitate proteins. Then the samples were vortexed for 30 sec. After centrifugation at 4° C., 4700 rpm for 30 min, and supernatant was diluted 2 times with water, 10 μL of the diluted supernatant was injected into the LC-MS/MS system for quantitative analysis.
All the samples were processed on ice.
(§7) The LC-MS/MS system consisted of two Shimadzu LC-30AD pumps, a DGU-20A5R degasser, a Rack changer II and LCMS-8060 LC/MS/MS instrument mass spectrometer.
(§8) OD-3R Particle size 3 μm 4.6 mm×150 mm column at room temperature. The mobile phase was composed of A: Water (5 mM Ammonium Acetate); B: Ethanol (5 mM Ammonium Acetate). The flow rate was 0.5 mL/min. The injection volume was 10 μL.
(§9) A multiple reaction monitoring (MRM) method was selected for quantitative analysis. […] The instrument parameters were set as follows: ion spray voltage: 8060; heating gas flow: 10 L/min; interface temperature: 250° C.; DL temperature: 220° C.; heat block temperature: 400° C.; drying gas flow: 10 L/min.
(§10) Data acquisition was performed by Lab Solutions version 5.89 Software (Shimadzu). All concentration data was reported with 3 significant figures. Data statistics were performed using Excel 2010 software.
(§11) The linear trapezoidal algorithm was used for AUC calculation.

in vivo [4] = conditions: male, SD, rat; for AUC(0-inf): AUCInf; for AUC(0-t): AUClast; for MRT inf: MRTInf
Procedure: as §1, §2, §3, §4, §5, §6
All the samples were processed on ice.
as §7, §8, §9, §10, §11

in vivo [5] = conditions: male, C57BL/6J, mouse
Procedure: 9 male C57BL/6J mice following administration of a single subcutaneous dose of 4.40 mg/kg. The vehicle for the subcutaneous formulation contained “0.1% sodium metabisulfite solution”.
(§12) Male C57BL/6J mice were purchased from Si Bei Fu Laboratory Animal Technology Co. Ltd (Beijing, China). The animals were about 8 weeks old with body weights of 20-30 g on the dosing date. The animals were housed in a 12-hour light/12-hour dark cycle environment and had free access to food and water. All animals were fasted overnight and fed after 4 hours collection.
For group 1, plasma samples were collected from dorsal metatarsal vein at each time point after subcutaneous administrations.
For plasma samples, about 30 μL or 300 μL of blood samples were collected from each animal via dorsal metatarsal vein or heart. These blood samples were placed into the tubes containing K2EDTA. And centrifugation at 3000 g for 10 minutes in a 4° C. centrifuge. The completion time from collection was less than 30 min. The stabilizing agent of ascorbic acid at 200 mg/mL was added in a proportion of 10% in plasma. The plasma samples were stored in a freezer at −75±15° C. prior to analysis. The completion time from collection was less than 60 min.
For brain and CSF samples, The animals were fully exsanguinated with a rising concentration of CO2 gas prior to CSF and brain collection.
For CSF collection, incision was made by scissors on the neck of the rats to expose the foramen magnum. A syringe fitted with a venoclysis needle was used to sample the CSF, the tip of the needle was inserted into the membrane of foramen magnum about 1-2 mm, and a negative pressure was applied by pulling a stopcock a small length of the syringe to extract CSF fluids into a tube. The stopcock was further actuated to until a sufficient amount of CSF was collected. There should be no blood in the CSF fluid. A stabilizing agent of ascorbic acid at 200 mg/mL was added in a proportion of 10% in CSF.
For brain collection. Brain samples were collected at an adopted time point, and washed 3 times with cold saline, then dried with clean gauze and put into the weighed tube, quick frozen in an ice box and kept at −75±15° C. All brain samples were weighted and homogenized with phosphate buffered saline (PBS) by brain weight (g) to PBS volume (mL) ratio 1:3 before analysis. The stabilizing agent of ascorbic acid at 200 mg/mL was added in a proportion of 10% in grain homogenate. The actual concentration was the detected value multiplied by the dilution factor. Brain samples were collected at designed time point, quickly homogenized and kept at −75±15° C.
Calibration standard working solutions were prepared at concentrations of 2, 5, 10, 20, 50, 100, 500, 1000, 5000 and 10000 ng/mL by serial dilution of the standard stock solution in 50% acetonitrile in water. Quality control working solutions at concentrations of 5, 10, 500 and 8000 ng/mL were prepared by serial dilution of the standard stock solution in 50% acetonitrile in water. These QC samples were prepared on the day of analysis in the same way as calibration standards.
For plasma and brain samples, 3 μL of each calibration standard working solution (2, 5, 10, 20, 50, 100, 500, 1000, 5000 and 10000 ng/mL) was added to 30 μL of the blank C57BL/6J mouse plasma or brain homogenate (with 10% 200 mg/mL ascorbic acid) to achieve calibration standards of 0.2-1000 ng/mL (0.2, 0.5, 1, 2, 5, 10, 50, 100, 500, 1000 ng/mL) in a total volume of 33 μL. Quality Control (QC) samples at 0.5 ng/mL (low-1), 1 ng/mL (low-2), 50 ng/mL (mid), 800 ng/mL (high) for plasma were prepared independently for those used for the calibration curves. These QC samples were prepared on the day of analysis in the same way as calibration standards.

[6] = for AUC_%Extrap_obs: Mean, male C57BL/6J mice; for Brain concentration, Mean / Plasma concentration, Mean / CSF concentration / plasma concentration: male, C57BL/6J, mouse, in vivo, po, 25 mg/kg
Procedure: as §12
The formulation was freshly made prior to use. Preparation of formulation for oral dosing are as follows:
For Group 1 and 2, blood, CSF and brain samples were collected from 3 mice at the following time points.
Plasma samples: About 30 μL or 300 μL of blood samples were collected from each animal via dorsal metatarsal vein or heart. These blood samples were placed into the tubes containing K2EDTA. And centrifugation at 3000 g for 10 minutes in a 4° C. centrifuge. The completion time from collection was less than 30 min. The stabilizing agent of ascorbic acid at 200 mg/mL was added in a proportion of 10% in plasma. The plasma samples were stored in a freezer at −75±15° C. prior to analysis. The completion time from collection was less than 60 min.
Brain and CSF Samples: The animals were fully exsanguinated with a rising concentration of CO2 gas prior to CSF and brain collection.
For CSF collection, make an incision by scissors on the neck of the rats, and the foramen magnum is exposed to the sight of scientist. Use a syringe with a venoclysis needle to sample the CSF, the tip of the needle is insert into the membrane of foramen magnum about 1-2 mm, and then pull the stopcock a small length of the syringe to make a negative pressure, then the CSF fluids to the tube. Watch the fluid in the tube and pull the stopcock slowly, when the amount of the CSF is enough, stop and split the needle and the syringe to ensure there is no negative pressure in the tube. Then cut off the needle and collect the CSF fluid. If we could see the blood in the tube, stop immediately, split the needle and the syringe, and then cut off between the blood and CSF to ensure there is no blood in the CSF fluid. Then collect the CSF fluid. The stabilizing agent of ascorbic acid at 200 mg/mL was added in a proportion of 10% in CSF. The completion time from collection was less than 60 min.
For brain collection. Brain samples were collected at adopted time point, and washed 3 times with cold saline, then dried with clean gauze and put into the weighed tube, quick frozen in ice box and kept at −75±15° C. All brain samples were weighted and homogenized with phosphate buffered saline (PBS) by brain weight (g) to PBS volume (mL) ratio 1:3 before analysis. The stabilizing agent of ascorbic acid at 200 mg/mL was added in a proportion of 10% in Brain homogenate. The actual concentration was the detected value multiplied by the dilution factor. Brain samples were collected at designed time point, quickly homogenized and kept at −75±15° C. The completion time from collection was less than 60 min.
Calibration standard working solutions were prepared at concentrations of 0.2, 0.5, 1, 2, 5, 10, 50, 100, 500, 1000 ng/mL by serial dilution of the standard stock solution. These QC samples were prepared on the day of analysis in the same way as calibration standards.
Plasma: The desired serial concentrations of working solutions were achieved by diluting stock solution of analyte with 50% acetonitrile in water solution. 10 μL of working solutions (0.1, 0.2, 0.5, 1, 2, 5, 10, 50, 100, 500, 1000 ng/mL) were added to 10 μL of the blank C57BL/6J Mice plasma to achieve calibration standards of 0.1˜1000 ng/mL (0.1, 0.2, 0.5, 1, 2, 5, 10, 50, 100, 500, 1000 ng/mL) in a total volume of 20 μL.

in vivo [7] = conditions: male, SD, rat
Procedure: The vehicle for the IN and PO formulation contained “0.1% sodium metabisulfite solution”.
The animals were about 8 weeks old with body weights of 200-300 g on the dosing date. The animals were housed in a 12-hour light/12-hour dark cycle environment and had free access to food and water. All animals were fasted overnight and fed after 4 hours collection.
For group 2, plasma, CSF and brain samples were collected at 0.5 and 1 h post dose.
For Group 2 (PO dose, 10.56 mg/kg), blood, CSF and brain samples were collected from 3 mice at two time point: 0.5 h and 1 h post dose.
For plasma samples, about 200 μL of blood samples were collected from each animal via jugular vein. These blood samples were placed into the tubes containing K2EDTA, and centrifuged at 3000 g for 10 minutes in a 4° C. centrifuge. The completion time from collection was less than 30 min. The stabilizing agent of ascorbic acid at 200 mg/mL was added in a proportion of 10% in plasma. The plasma samples were stored in a freezer at −75±15° C. prior to analysis. The completion time from collection was less than 60 min.
For brain and CSF samples, The animals were fully exsanguinated with a rising concentration of CO2 gas prior to CSF and brain collection. […]
For brain collection. […] The actual concentration was the detected value multiplied by the dilution factor. […]

[8] = male, beagle, dog, in vivo, po, 10 mg/kg
[9] = male, beagle, dog, in vivo, po, 10 mg/kg, 0.5 h
[10] = single PO 10 mg/kg, 0.500 h, individual animal
[11] = 0.88 mg/kg, plasma concentration
[12] = iv, 0.88 mg/kg, plasma concentration
[13] = iv, 0.88 mg/kg, plasma concentration, Mean

For CN1CCc2cccc3c2[C@@H]1Cc1ccc(O)c(O)c1-3, the oxidation [1] was “significant oxidation”, the AUC(0-t) (in vivo [2]; [8]) was 86.4 ng·h/mL and the Tlast (in vivo [2]; [8]) was 0.500 h. For the same compound, the CSF concentration (in vivo [2]; [9]) was 2.71 ng/mL, the Striatum concentration (in vivo [2]; [9]) was 145 ng/g and the Kp (in vivo [2]; male, beagle, dog, in vivo, po, 10 mg/kg, AUClast ratio of CSF to plasma) was 0.00888 ± 0.0031. For the same compound, the Cmax (in vivo [2]; male, beagle, dog, in vivo, po, 10 mg/kg, Cmax, plasma, single PO 10 mg/kg, individual animal) was 265 ng/mL, the MRT last (in vivo [2]; male, beagle, dog, in vivo, po, 10 mg/kg, MRTlast) was 19.7 min and the concentration at […] (in vivo [2]; male, beagle, dog, in vivo, po, 10 mg/kg, plasma concentration) was 255 ng/mL. It also gave a concentration at 0.033 h (in vivo [2]; male, beagle, dog, in vivo, po, 10 mg/kg, plasma concentration, single PO 10 mg/kg, 119 s, individual animal) of 2.92 ng/mL, a Kp at 0.5 h (in vivo [2]; male, beagle, dog, in vivo, po, 10 mg/kg, ratio of cerebellum/plasma) of 0.505 ± 0.117 and a Kp at 0.5 h (in vivo [2]; male, beagle, dog, in vivo, po, 10 mg/kg, ratio of cortex/plasma) of 0.704 ± 0.184. It also gave a Kp at 0.5 h (in vivo [2]; male, beagle, dog, in vivo, po, 10 mg/kg, ratio of striatum/plasma) of 0.666 ± 0.0544, a Cerebellum concentration (in vivo [2]; [10]) of 129 ng/g and a Cortex concentration (in vivo [2]; [10]) of 124 ng/g. The Striatum concentration (in vivo [2]; [10]) was 137 ng/g, the Cl ([3]; iv, 0.88 mg/kg) was 209 mL/min/kg and the AUClast/D ([3]; po, […]) was 7.39 mg·h/mL. For the same compound, the AUClast/D ([3]; sc, 0.88 mg/kg) was 77.3 mg·h/mL, the concentration at 0.5 h (in vivo [4]) was 31 ng/mL and the concentration at 1 h (in vivo [4]) was 8.96 ng/mL. The concentration at 2 h (in vivo [4]) was 6.87 ng/mL, the concentration at 8 h (in vivo [4]) was 0.651 ng/mL and the concentration at […] (in vivo [4]) was 114 ng/mL. It also gave a concentration at […] (in vivo [4]; 0.88 mg/kg) of 119 ng/mL, a concentration at 2 min (in vivo [4]; [11]) of 42.7 ng/mL and a concentration at 0.5 h (in vivo [4]; [11]) of 40.5 ng/mL. For the same compound, the concentration at 1 h (in vivo [4]; [11]) was 5.76 ng/mL, the concentration at 2 h (in vivo [4]; [11]) was 1.52 ng/mL and the concentration at 8 h (in vivo [4]; [11]) was 0.877 ng/mL. For the same compound, the concentration at […] (in vivo [4]; [11]) was 162 ng/mL and 151 ng/mL and 107 ng/mL, the AUC(0-inf) (in vivo [4]; iv, 0.88 mg/kg) was 86.6 ng·h/mL and the AUC(0-t) (in vivo [4]; iv, 0.88 mg/kg) was 83.2 ng·h/mL. It also gave a C0 (in vivo [4]; iv, 0.88 mg/kg, C0) of 527 ng/mL, a clearance (in vivo [4]; iv, 0.88 mg/kg, Cl) of 169 mL/min/kg and an MRT inf (in vivo [4]; iv, 0.88 mg/kg) of 75.6 min. For the same compound, the Vd (in vivo [4]; iv, 0.88 mg/kg, Vss) was 12.8 L/kg, the concentration at 2 min (in vivo [4]; [12]) was 353 ng/mL and the concentration at 0.5 h (in vivo [4]; [12]) was 17.8 ng/mL. It also gave a concentration at 1 h (in vivo [4]; [12]) of 7.6 ng/mL, a concentration at 2 h (in vivo [4]; [12]) of 4.32 ng/mL and a concentration at 8 h (in vivo [4]; [12]) of 0.88 ng/mL. It also gave a concentration at […] (in vivo [4]; [12]) of 104 ng/mL, a concentration at 2 min (in vivo [4]; [13]) of 339 ng/mL and a concentration at 0.5 h (in vivo [4]; [13]) of 16.4 ng/mL. For the same compound, the concentration at 1 h (in vivo [4]; [13]) was 6.37 ng/mL, the concentration at 2 h (in vivo [4]; [13]) was 3.67 ng/mL and the concentration at 8 h (in vivo [4]; [13]) was 0.777 ng/mL. For the same compound, the AUC(0-inf) (in vivo [4]; sc, 0.88 mg/kg) was 71.2 ng·h/mL, the AUC(0-t) (in vivo [4]; sc, 0.88 mg/kg) was 70.2 ng·h/mL and the Cmax (in vivo [4]; sc, 0.88 mg/kg, Cmax) was 141 ng/mL. It also gave an MRT inf (in vivo [4]; sc, 0.88 mg/kg) of 52.4 min, a concentration at 0.5 h (in vivo [5]; CSF concentration) of 9.59 ng/mL and a concentration at […] (in vivo [5]; CSF concentration) of 20.5 ng/mL. It also gave a concentration at 0.5 h (in vivo [5]; plasma concentration) of 169 ng/mL, a concentration at 1 h (in vivo [5]; plasma concentration) of 52 ng/mL and a concentration at 2 h (in vivo [5]; plasma concentration) of 14.9 ng/mL. The concentration at […] (in vivo [5]; plasma concentration) was 760 ng/mL and 721 ng/mL, the concentration at 0.5 h (in vivo [5]; plasma concentration, Mean) was 187 ng/mL and the concentration at 1 h (in vivo [5]; plasma concentration, Mean) was 41 ng/mL. For the same compound, the concentration at 2 h (in vivo [5]; plasma concentration, Mean) was 18.7 ng/mL, the concentration at […] (in vivo [5]; plasma concentration, Mean) was 970 ng/mL and 692 ng/mL and the AUC_%Extrap_obs ([6]; CSF, last day (Day 4) of repeated oral dose 25 mg/kg) was 3.18%. The AUC_%Extrap_obs ([6]; brain, single oral dose 25 mg/kg) was 18.5%, the “Brain concentration, Mean” value ([6]; 0.5 h) was 90 ng/g and the “Plasma concentration, Mean” value ([6]; 0.5 h) was 453 ng/mL. The “Brain concentration, Mean” value ([6]; 1 h) was 36.3 ng/g, the CSF concentration ([6]; 1 h) was 3.06 ng/mL and the “Plasma concentration, Mean” value ([6]; 1 h) was 153 ng/mL. For the same compound, the “Brain concentration, Mean” value ([6]; 2 h) was 21.9 ng/g, the “Brain concentration, Mean” value ([6]; 3 h) was 6.80 ng/g and the “Plasma concentration, Mean” value ([6]; 3 h) was 48.2 ng/mL. For the same compound, the CSF concentration ([6]; 4 h) was 3.42 ng/mL, the plasma concentration ([6]; 8 h) was 0.599 ng/mL and the plasma concentration ([6]; 12 h) was 0.150 ng/mL. The Kp at 0.5 h (in vivo [7]) was 0.233 and the concentration at 0.5 h (in vivo [7]) was 299 ng/g.
